Test results reported in BindingDB's records for doi:10.7270/Q2HQ3XCR (Nmmlsc, 2009).

Molecular target: T1, Bcl-2-related protein A1 (Homo sapiens, UniProt Q16548)
T1 sequence (Q16548 whole entry): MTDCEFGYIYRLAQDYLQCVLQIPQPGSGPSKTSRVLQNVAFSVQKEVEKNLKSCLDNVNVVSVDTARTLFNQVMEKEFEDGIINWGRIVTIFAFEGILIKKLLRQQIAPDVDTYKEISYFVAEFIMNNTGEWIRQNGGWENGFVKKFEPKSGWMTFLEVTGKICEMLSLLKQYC
Experiment: inhibitors of Bim binding to Bfl-1, confirmation, biochemical, multiplexed, bead-based flow cytometry, HTS hits (AID 2080)

[1] = inactive by the depositor's call

| SMILES | EC50 [1] [µM] | EC50 [µM] |
| --- | --- | --- |
| Cc1ccc(-c2cc(-c3ccc(F)cc3)c(C#N)c(N)n2)o1 | 20 | – |
| O=C1C(Cl)=C(N2CCN(c3ccccc3[N+](=O)[O-])CC2)C(=O)c2ccccc21 | – | 2.68 |
| CCN(CC)c1ccc(NC(=O)c2ccccc2Br)cc1S(=O)(=O)Nc1ccccc1OC | 10.7 | – |
| O=c1[nH]c(O)c(Cc2ccc(-c3cc(Cl)ccc3[N+](=O)[O-])o2)c(=O)[nH]1 | – | 0.81 |
| O=C(NCc1ccccc1)c1ccc2nc(-c3ccco3)c(-c3ccco3)nc2c1 [2,3-bis(furan-2-yl)-N-(phenylmethyl)quinoxaline-6-carboxamide] | – | 8.1 |
| Cc1nnc(Sc2cc(NCCO)c([N+](=O)[O-])c3nonc23)s1 [2-[[7-[(5-methyl-1,3,4-thiadiazol-2-yl)thio]-4-nitro-2,1,3-benzoxadiazol-5-yl]amino]ethanol] | – | 0.82 |
| Cc1ccc(-c2cc(-c3ccc(C)o3)nc(N)c2C#N)cc1 [2-amino-6-(5-methylfuran-2-yl)-4-(4-methylphenyl)pyridine-3-carbonitrile] | – | 5.44 |
| Cc1cc(-c2cc(-c3ccc(Cl)cc3)nc(N)c2C#N)co1 [2-azanyl-6-(4-chlorophenyl)-4-(5-methylfuran-3-yl)pyridine-3-carbonitrile] | – | 4.92 |
| COc1ccc(N2C(=O)C(Cl)=C(Oc3cccc(OC)c3)C2=O)cc1 [3-chloro-4-(3-methoxyphenoxy)-1-(4-methoxyphenyl)-1H-pyrrole-2,5-dione] | – | 1.06 |
| CNC(CC(=O)c1ccc([N+](=O)[O-])cc1)C(Cl)(Cl)Cl (configuration not stated) [4,4,4-Trichloro-3-methylamino-1-(4-nitro-phenyl)-butan-1-one] | – | 3.97 |
| C=CS(=O)(=O)c1sc(Cl)c(N2CCOCC2)c1[N+](=O)[O-] [4-(2-chloranyl-5-ethenylsulfonyl-4-nitro-thiophen-3-yl)morpholine] | – | 3.57 |
| COc1cc(/N=C2\SSNC2Cl)c(OC)cc1Cl (configuration not stated) [4-chloro-N-(4-chloro-2,5-dimethoxyphenyl)-5-dithiazolidinimine] | – | 5.78 |
| O=C1C(=Cc2ccco2)NC(=S)N1c1ccccc1 [(5E)-5-(furan-2-ylmethylidene)-3-phenyl-2-sulfanylideneimidazolidin-4-one] | 17.4 | – |
| Clc1nc(NCc2cccnc2)nc(N2CCOCC2)n1 [MLS000121154] | 20 | – |
| O=[N+]([O-])c1c(NCCCO)cc(Sc2nc3ccccc3s2)c2nonc12 [MLS000520994] | – | 0.26 |
| CN(CCO)c1cc(Sc2nc3ccccc3s2)c2nonc2c1[N+](=O)[O-] [MLS000520995] | – | 0.72 |
| CC(=O)OCCCNc1cc(Sc2nc3ccccc3s2)c2nonc2c1[N+](=O)[O-] [MLS000521052] | – | 0.17 |
| CC(=O)Nc1ccc(-n2cc(-c3ccccc3)[nH]c2=S)cc1 [MLS001001946] | – | 2.05 |
| COc1ccccc1-n1c(-c2ccccc2)c[nH]c1=S [MLS001007615] | – | 1.23 |
| COc1ccc(CCNC(=O)c2ccc3nc(-c4ccco4)c(-c4ccco4)nc3c2)cc1OC [N-[2-(3,4-dimethoxyphenyl)ethyl]-2,3-di-2-furylquinoxaline-6-carboxamide] | 15.4 | – |
| COc1ccccc1NC1=C(NC(C)=O)C(=O)c2ccccc2C1=O [N-[3-(2-methoxyanilino)-1,4-dioxonaphthalen-2-yl]acetamide] | – | 1.84 |
| O=C(Nc1nnc(COc2ccc(Cl)cc2)s1)c1ccco1 [N-[5-[(4-chloranylphenoxy)methyl]-1,3,4-thiadiazol-2-yl]furan-2-carboxamide] | – | 3.09 |
| Cc1cc2nn(-c3cccc4ccccc34)nc2cc1N [SMR000076237] | – | 1.51 |
| S=c1[nH]cc(-c2ccccc2)n1-c1ccccc1 [SMR000196363] | – | 3 |
| CCN1C(=O)/C(=C\C=C2/C=CC=CN2CC)SC1=S [SMR000225150] | – | 2.32 |
| Oc1ccc(NCc2ccccc2OCc2ccccc2)cc1 [SMR000231540] | – | 8.06 |
| CCN(CC)c1ccc(NC(=O)c2ccccc2F)cc1S(=O)(=O)Nc1ccccc1OC [SMR000241522] | 25.8 | – |
